Source: patent publication US20230201383A1, “PSMA TARGETING UREA-BASED LIGANDS FOR PROSTATE CANCER RADIOTHERAPY AND IMAGING” (Rigshospitalet, priority 2020, published 2023)
Entries after “also recorded” stand apart in the source; their conditions may differ. Structures can show the parent of a compound that is named as a salt.

Experiments:
[1] = test system: PSMA(+) LNCaP cells; experiment: Internalisation and cell surface binding of 68Ga-labeled compounds in LNCaP cells; assay type: cell-based, human
Method: Compounds Ii, Ij, Ik, Il, Im and In was provided using the same method as disclosed in Example 3 and in vitro test of the binding affinity and internalisation of the compounds were examined using the method as described in Benesova et al, 2016^9. The iodine isotope used was ^127I.
For internalisation determinations, a day before the experiment, PSMA(+) LNCaP cells were seeded in a poly-L-lysine coated 24-well plate (10^5 cells per well) and maintained at 37° C. in an atmosphere of 5% CO2 under supplemented RMPI medium (10% Fetal Calf Serum, 1% sodium pyruvate, 1% FIS). Cells were incubated with 250 μL of radiolabelled compound diluted in RPMI medium (final concentration of [^68Ga]-peptide: 30 nM) and 500 μM of PMPA (2-phosphonomethyl-pentanedioic acid) for the blocked series, for 45 min at 37° C. Cellular uptake was interrupted by washing the cells with ice-cold PBS (3×1 mL). Surface bound radioactivity was removed by incubating twice with 0.5 mL glycine (50 mM, pH=2.8) for 5 min. Thereafter, cells were washed with PBS (1 mL) and lysed employing NaOH (0.3 M) during 10 min. Lysates and surface-bound activity were collected and measured in a gamma-counter (Perkin Elmer 2480, Wizard, Gamma Counter). The cell uptake was calculated as percent of the initially added radioactivity bound to […].
For internalisation studies androgen-sensitive human prostate adenocarcinoma cells (LNCaP) highly overexpressing PSMA were incubated with the ^68Ga-labeled compounds resulting in specific cell surface binding of all tested compounds (Table 2).

[2] = test system: LNCaP-tumor-bearing athymic nude mice; experiment: Small-animal PET imaging: tumor uptake and pharmacokinetic profile; assay type: in vivo; conditions: for Binding profile and biodistribution/pharmacokinetics compared with PSMA-617: direct head-to-head comparison with PSMA-617
Method: For the experimental tumor models 1×10^7 cells of LNCaP (in 50% Matrigel; Becton Dickinson) were subcutaneously inoculated into the right flank of 7- to 8-week-old male BALB/c nu/nu mice (Janvier). For imaging studies, mice were anesthetized (2% isoflurane) and 0.5 nmol of the ^68Ga-labeled compound in 0.9% NaCl (pH 7) were injected into the tail vein. PET imaging was performed with μPET/MRI scanner (BioSpec 3T, Bruker) with a dynamic scan for 60 min. The images were iteratively reconstructed (MLEM 0.5 algorithm, 12 iterations) and were converted to SUV images. Quantification was done using a ROI (region of interest) technique and data in expressed in time activity curves as SUVbody weight. All animal experiments complied with the current laws of the Federal Republic of Germany.
FIGS. 2 to 7 show the pharmacokinetic study with small-animal PET imaging. Time activity curves for non-target organs and tumor after injection of 0.5 nmol ^68Ga-labeled compounds in LNCaP-tumor-bearing athymic nude mice (right trunk) up to 60 min p.i. SUV=standardized uptake value.

[3] = 68Ga-labeled compounds, 30 nM, 45 min at 37° C., LNCaP cells, specific uptake by blockage with 500 μM 2-PMPA, mean ± SD (n=3)
[4] = 68Ga-labeled compounds, LNCaP cells
[5] = 0.5 nmol 68Ga-labeled compound i.v., PET up to 60 min p.i., time activity curves (SUV)
[6] = 68Ga-labeled compounds, LNCaP cells, trifluoroacetic acid salt

SMILES	Specifically cell surface bound [1, 3] [% IA/10^5 cells]	Specifically internalised [1, 3] [% IA/10^5 cells]	Internalisation compared with PSMA-617 (in words) [1, 4]	Tumor-to-muscle ratio compared with PSMA-617 [2, 5]	Binding profile and biodistribution/pharmacokinetics compared with PSMA-617 [2]	Internalisation compared with PSMA-617 (in words) [1, 6]	Tumor accumulation (reversibility) [2, 5]	Tumor uptake compared with PSMA-617 [2, 5]	Specifically cell surface bound ([1]; 0.75 h, 0.03 µM) [% IA/10^5 cells]
O=C(O)CC[C@H](NC(=O)N[C@@H](CCCCNC(=O)[C@H](Cc1ccccc1I)NC(=O)[C@H]1CC[C@H](CNC(=O)CN2CCN(CC(=O)O)CCN(CC(=O)O)CCN(CC(=O)O)CC2)CC1)C(=O)O)C(=O)O [Ii, (((S)-1-carboxy-5-((S)-3-(2-iodophenyl)-2-((1r,4S)-4-((2-(4,7,10-tris(carboxymethyl)-1,4,7,10-tetraazacyclododecan-1-yl)acetamido)methyl)cyclohexane-1-carboxamido)propanamido)pentyl)carbamoyl)-L-glutamic acid trifluoroacetic acid salt]	1.1 ± 0.4	0.7 ± 0.1	comparable to PSMA-617	increased at later time points compared to PSMA-617	comparable or superior to values observed for PSMA-617				
O=C(O)CC[C@H](NC(=O)N[C@@H](CCCCNC(=O)[C@H](Cc1cccc(I)c1)NC(=O)[C@H]1CC[C@H](CNC(=O)CN2CCN(CC(=O)O)CCN(CC(=O)O)CCN(CC(=O)O)CC2)CC1)C(=O)O)C(=O)O [Ij, (((S)-1-carboxy-5-((S)-3-(3-iodophenyl)-2-((1r,4S)-4-((2-(4,7,10-tris(carboxymethyl)-1,4,7,10-tetraazacyclododecan-1-yl)acetamido)methyl)cyclohexane-1-carboxamido)propanamido)pentyl)carbamoyl)-L-glutamic acid trifluoroacetic acid salt]	2.3 ± 0.2	0.8 ± 0.3				higher than or comparable to PSMA-617; also recorded: comparable to PSMA-617			
O=C(O)CC[C@H](NC(=O)N[C@@H](CCCCNC(=O)[C@H](Cc1ccc(I)cc1)NC(=O)[C@H]1CC[C@H](CNC(=O)CN2CCN(CC(=O)O)CCN(CC(=O)O)CCN(CC(=O)O)CC2)CC1)C(=O)O)C(=O)O [Ik, (((S)-1-carboxy-5-((S)-3-(4-iodophenyl)-2-((1r,4S)-4-((2-(4,7,10-tris(carboxymethyl)-1,4,7,10-tetraazacyclododecan-1-yl)acetamido)methyl)cyclohexane-1-carboxamido)propanamido)pentyl)carbamoyl)-L-glutamic acid trifluoroacetic acid salt]	0.7 ± 0.1	0.6 ± 0.3	comparable to PSMA-617				more reversible tumor accumulation		
O=C(O)CC[C@H](NC(=O)N[C@@H](CCCCNC(=O)[C@@H](Cc1c[nH]c2ccc(I)cc12)NC(=O)[C@H]1CC[C@H](CNC(=O)CN2CCN(CC(=O)O)CCN(CC(=O)O)CCN(CC(=O)O)CC2)CC1)C(=O)O)C(=O)O [Il, (((S)-1-carboxy-5-((R)-3-(5-iodo-1H-indol-3-yl)-2-((1r,4R)-4-((2-(4,7,10-tris(carboxymethyl)-1,4,7,10-tetraazacyclododecan-1-yl)acetamido)methyl)cyclohexane-1-carboxamido)propanamido)pentyl)carbamoyl)-L-glutamic acid trifluoroacetic acid salt]	1.6 ± 0.4	0.6 ± 0.2	comparable to PSMA-617						
O=C(O)CC[C@H](NC(=O)N[C@@H](CCCCNC(=O)[C@H](Cc1ccc2ccccc2c1)NC(=O)[C@H]1CC[C@H](CNC(=O)[C@H](Cc2ccc(I)cc2)NC(=O)CN2CCN(CC(=O)O)CCN(CC(=O)O)CCN(CC(=O)O)CC2)CC1)C(=O)O)C(=O)O [Im, (((S)-1-carboxy-5-((S)-2-((1S,4S)-4-(((S)-3-(4-iodophenyl)-2-(2-(4,7,10-tris(carboxymethyl)-1,4,7,10-tetraazacyclododecan-1-yl)acetamido)propanamido)methyl)cyclohexanecarboxamido)-3-(naphthalen-2-yl)propanamido)pentyl)carbamoyl)-L-glutamic acid trifluoroacetic acid salt]	1.6 ± 0.5	0.9 ± 0.5			comparable or superior to values observed for PSMA-617	higher than or comparable to PSMA-617; also recorded: comparable to PSMA-617		higher tumor uptake compared to PSMA-617	
O=C(O)CC[C@H](NC(=O)N[C@@H](CCCCNC(=O)[C@H](Cc1ccc2ccccc2c1)NC(=O)[C@H](Cc1ccc(I)cc1)NC(=O)CN1CCN(CC(=O)O)CCN(CC(=O)O)CCN(CC(=O)O)CC1)C(=O)O)C(=O)O [In, (((S)-1-carboxy-5-((S)-2-((S)-3-(4-iodophenyl)-2-(2-(4,7,10-tris(carboxymethyl)-1,4,7,10-tetraazacyclododecan-1-yl)acetamido)propanamido)-3-(naphthalen-2-yl)propanamido)pentyl)carbamoyl)-L-glutamic acid trifluoroacetic acid salt]	0.4 ± 0.1	0.2 ± 0.1	reduced internalised fraction						
O=C(O)CC[C@H](NC(=O)N[C@@H](CCCCNC(=O)[C@H](Cc1ccc2ccccc2c1)NC(=O)[C@H]1CC[C@H](CNC(=O)CN2CCN(CC(=O)O)CCN(CC(=O)O)CCN(CC(=O)O)CC2)CC1)C(=O)O)C(=O)O [PSMA-617, reference compound]		0.6 ± 0.2							1.5 ± 0.4
